Read-outs that look alike come from different tables or passages of the source.
Test system: Malassezia furfur
Conditions: inhibition of growth of the Malassezia fungus
Method: Malassezia furfur is grown in a flask containing mDixon medium (see E. Gueho, et. al. Antoninie Leeuwenhock (1996), no. 69, 337-55, which description is incorporated by reference herein). Dilutions of solubilized anti-microbial active or diluted products are then added to test tubes containing molten mDixon agar. M. furfur inoculum is added to each tube of molten agar, the tube vortexed, and the contents poured into separate sterile petri dishes. After the plates are incubated, they are observed for visible M. furfur growth. The lowest tested dilution of anti-microbial active or finished product that comprises that yields no growth is defined as the Minimal Inhibitory Concentration (MIC).

Minimum Inhibitory Concentration (MIC) (parts active per million parts product and dilution media): 5 ppm
Minimum Inhibitory Concentration (MIC) (same MIC expressed as g active per 100 g (product + dilution solution)): 0.0005 g/100 g
Compound: [O-]n1ccccc1=S.[O-]n1ccccc1=S.[Zn+2] [ZPT, zinc salt of 1-hydroxy-2-pyridinethione]

Reference: US10888505B2, “Dosage of foam for delivering consumer desired dosage volume, surfactant amount, and scalp health agent amount in an optimal formulation space” (The Procter & Gamble Company, priority 2016, dated 2021)
